The assay has as its system cellular histone deacetylase enzymatic activity in Jurkat E6-1 cells. Briefly: Inhibition of cellular HDAC activity in Jurkat E6-1 cells, fluorogenic substrate Boc-Lys(Tfa)-AMC. The format is cell-based. Conditions: Homo sapiens, read-out: Cell IC50. From the text: Analysis of Inhibition of Cellular HDAC Activity with Class IIa Histone Deacetylase (HDAC) Inhibitors
The potency of Class IIa Histone Deacetylase (HDAC) inhibitors is quantified by measuring the cellular histone deacetylase enzymatic activity using the fluorogenic substrate, Boc-Lys(Tfa)-AMC. After penetration in Jurkat E6-1 cells, the substrate is deacetylated to Boc-Lys-AMC. After cell lysis and cleavage by trypsin, the fluorophore AMC is released from the deacetylated substrate only. The fluorescence of the sample is directly related to the histone deacetylase activity in the sample.
Jurkat E6.1 cell culture and plating. Jurkat E6.1 cells are cultured according to standard cell culture protocols in Jurkat E6.1 Growth Media (RPMI without phenol red, 10% FBS, 1 mM HEPES, and 1 mM Sodium Pyruvate). Jurkat E6.1 cells are counted using a Coulter Counter and resuspended in Jurkat E6.1 growth media at a concentration of 75,000 cells/35 μl. 35 μl or 75,000 cells is seeded into Greiner microtitre assay plates. The plates are then incubated at 37° C. and 5% CO2 while other assay components are being prepared.
Serially dilute HDAC inhibitor compounds. Serial dilutions of the HDAC inhibitors and control reference compound (1-(5-(3-((4-(1,3,4-oxadiazol-2-yl)phenoxy)methyl)-1,2,4-oxadiazol-5-yl)thiophen-2-yl)-2,2,2-trifluoroethanone) are made by first resuspending the lyophilized compound to a final concentration of 10 mM in […]. Stocks of 70 μl aliquots of the 10 mM compound in DMSO are prepared and stored at −20° C. From one stock aliquot of each compound to be tested and the reference compound, a 16-point serial dilution is prepared according to Table 1 using a 125 μl 16-channel Matrix multi-channel pipette.
2 μl (200×) of each diluted solution and each control (full activity: 100% DMSO alone or full inhibition 1 mM) is stamped into V-bottom polypropylene 384-well compound plates using either the Bravo, Janus, or 12.5 μl 16-channel Matrix multi-channel pipette. Each well with the 200× compound solution is diluted 1:20 by the addition of 38 μl Jurkat assay buffer+DMSO (9.5% DMSO, RPMI without phenol red, 0.09% FBS, 9 mM Hepes, and 0.9 mM Sodium Pyruvate equilibrated to r.t.)
Prepare 5× (500 μM) Boc-Lys(Tfa)-AMC substrate. 5× (500 μM) substrate is prepared just prior to the addition to the assay. The 5× substrate is prepared by diluting a 100 mM Boc-Lys(Tfa)-AMC in DMSO solution 1:200 by adding it drop-wise to Jurkat assay medium (RPMI without phenol red, 0.1% FBS, 10 mM Hepes, and 1 mM Sodium Pyruvate equilibrated to 37° C.) while vortexing at slow speed to prevent precipitation.
Prepare 3× Lysis Buffer. 10 mL of 3× lysis buffer is prepared with 8.8 mL of 3× stock lysis buffer (50 mM Tris-HCl, pH 8.0, 137 mM NaCl, 2.7 mM KCl, 1 mM MgCl2, 1% Nonidet P40 Substitute equilibrated to r.t.) and 1.2 mL of 3 mg/mL Trypsin equilibrated to r.t.
Assay. 5 μl of each solution of 1:20 diluted compound from above is transferred to the Greiner microtitre assay plates with 75,000 cells/well using the Bravo. Cells are then incubated for 2 hours at 37° C. and 5% CO2. The assay is then started by adding 10 μl of 5× (500 μM) substrate to the assay plate using either the Bravo or 16-channel Matrix multi-channel pipette. The cells are then incubated for 3 hours at 37° C. and 5% CO2. Next, 25 μl of 3× lysis buffer is added to each well using either the 125 μl 16 channel pipette or the Bravo. The assay plate is then incubated overnight (15-16 hours) at 37° C. and 5% CO2. The following day, the plates are shaken on an orbital shaker for 1 minute at 900 rpm. Finally the top read fluorescence (Excitation: 355 nm, Emission: 460 nm) is measured using PerkinElmer EnVision.
Take `Cc1ccccc1[C@H]1CC[C@@](C(=O)NO)(c2cccc(F)c2C)C1` (relative stereo) [Example 8, (±)-(1S*,3S*)1-(3-fluoro-2-methylphenyl)-N-hydroxy-3-(o-tolyl)cyclopentane carboxamide]: the IC50 was 480 nM.

Turning to `Cc1c(F)cccc1[C@]1(C(=O)NO)CC[C@@H](c2cnn(CCN3CCOCC3)c2)C1` (relative stereo) [Example 47, (1S,3R*)-1-(3-fluoro-2-methylphenyl)-N-hydroxy-3-(1-(2-morpholinoethyl)-1H-pyrazol-4-yl)cyclopentanecarboxamide], the concentration for half-maximal inhibition (IC50) was found to be 830 nM.

For `CCN(CC)CCn1cc([C@@H]2CC[C@@](C(=O)NO)(c3cccc(F)c3C)C2)cn1` (relative stereo) [Example 51, (1S,3R*)-3-(1-(2-(diethylamino)ethyl)-1H-pyrazol-4-yl)-1-(3-fluoro-2-methylphenyl)-N-hydroxycyclopentanecarboxamide], the IC50 was 290 nM.

For `CCCN(CCC)C[C@@H](C)NC(=O)c1ccc([C@@H]2CC[C@@](C(=O)NO)(c3cccc(F)c3C)C2)cc1` (relative stereo) [Example 52, N—((R)-1-(dipropylamino)propan-2-yl)-4-((1R*,3S)-3-(3-fluoro-2-methylphenyl)-3-(hydroxycarbamoyl)cyclopentyl)benzamide], the IC50 came to 180 nM.

For `CCCN(CCC)C[C@@H](C)NC(=O)c1ccc([C@H]2CC[C@@](C(=O)NO)(c3cccc(F)c3C)C2)cc1` (relative stereo) [Example 53, N—((R)-1-(dipropylamino)propan-2-yl)-4-((1S*,3S)-3-(3-fluoro-2-methylphenyl)-3-(hydroxycarbamoyl)cyclopentyl)benzamide], the IC50 is 150 nM.

In the case of `Cc1c(F)cccc1[C@]1(C(=O)NO)CC[C@@H](c2ccc3c(c2)CN(C2CC2)C3=O)C1` (relative stereo) [Example 59, (1S,3R*)-3-(2-cyclopropyl-1-oxoisoindolin-5-yl)-1-(3-fluoro-2-methylphenyl)-N-hydroxycyclopentanecarboxamide], the IC50 stood at 190 nM.

In the case of `Cc1c(F)cccc1[C@]1(C(=O)NO)CC[C@H](c2ccc3sc(C4CC4)nc3c2)C1` (relative stereo) [Example 79, (1S,3S*)-3-(2-Cyclopropylbenzo[d]thiazol-5-yl)-1-(3-fluoro-2-methylphenyl)-N-hydroxycyclopentanecarboxamide], the IC50 worked out at 380 nM.

For the compound `Cc1c(F)cccc1[C@]1(C(=O)NO)CC[C@@H](c2ccc3sc(C4CC4)nc3c2)C1` (relative stereo) [Example 80, (1 S,3R*)-3-(2-Cyclopropylbenzo[c]thiazol-5-yl)-1-(3-fluoro-2-methylphenyl)-N-hydroxycyclopentanecarboxamide], the IC50 turned out to be 380 nM.

Take `Cc1c([C@]2(C(=O)NO)CC[C@@H](c3ccc4cnn(C)c4c3)C2)ccc(F)c1F` (relative stereo) [Example 86, (1S,3R*)-1-(3,4-difluoro-2-methylphenyl)-N-hydroxy-3-(1-methyl-1H-indazol-6-yl)cyclopentanecarboxamide]: the IC50 was determined as 160 nM.

Take `Cc1c(F)cccc1[C@]1(C(=O)NO)CC[C@@H](N2CCCC2)C1` (relative stereo) [Example 87, (1 S,3R*)-1-(3-fluoro-2-methylphenyl)-N-hydroxy-3-(pyrrolidin-1-yl)cyclopentanecarboxamide]: the 50% inhibitory concentration (IC50) was over 50000 nM.

On to `Cc1c(F)cccc1[C@]1(C(=O)NO)CC[C@H](N2CCCC2)C1` (relative stereo) [Example 88, (1 S,3S*)-1-(3-fluoro-2-methylphenyl)-N-hydroxy-3-(pyrrolidin-1-yl)cyclopentanecarboxamide], for which the IC50 is over 50000 nM.

With `Cc1c(F)cccc1[C@@]1(C(=O)NO)CC[C@H](c2ccccc2)C1` (stereo in doubt) [Example 4, (1R*,3S*)-1-(3-fluoro-2-methylphenyl)-N-hydroxy-3-phenylcyclopentanecarboxamide], the IC50 turned out to be 440 nM.

These data come from US9783488B2 (CHDI Foundation, Inc., priority 2013, dated 2017).
